Measurements as given in patent publication US20090156666A1, “NOVEL COMPOSITIONS AND USE THEREOF FOR THE TREATMENT, CO-TREATMENT OR PREVENTION OF INFLAMMATORY DISORDERS” (priority 2007, published 2009).

Legend:
[1] = system: nitric oxide (NO) synthesis in RAW264.7 cells; test: Inhibition of nitric oxide synthesis in LPS-stimulated RAW264.7 macrophages (Griess reaction); format: cell-based, murine; conditions: single substances
human aggrecan = test: Gene expression (mRNA, RT-PCR) in normal human chondrocytes: aggrecan; format: cell-based; conditions: 50 μmol/L; 4 hrs; % of unstimulated cells (100%)
Protocol: (§1) The effect of a MA/HO (1:3 w/w) mixture in combination with glucosamine was tested on the expression of human aggrecan, collagen I, collagen II, or chondrocyte transcription factors (SOX-6, -9) in vitro in normal human chondrocytes (derived from knee) (CC-2550; Cambrex, respectively). A control experiment without the compounds was done concomitantly to compare the expression of these genes (percentage expression of gene in controls was set to 100%). […] The level of mRNA was determined by RT-PCR (Richard et al. Mol. Nutr. Food Res. 49, 431-442, 2005) and expressed relative to the level observed in cells cultured without the substances. The given values indicate the level of gene expression (in % of unstimulated cells [set at 100%] for anabolic and anti-catabolic genes; in % of IL1β-treated cells [set at 100%], for catabolic genes). […] Yet, when combined the observed increase in gene expression exceeded the expected one reflecting synergism.

collagen I = test: Gene expression (mRNA, RT-PCR) in normal human chondrocytes: collagen I; format: cell-based; conditions: 50 μmol/L; 4 hrs; % of unstimulated cells (100%)
Protocol: as §1

collagen II = test: Gene expression (mRNA, RT-PCR) in normal human chondrocytes: collagen II; format: cell-based; conditions: 50 μmol/L; 4 hrs; % of unstimulated cells (100%)
Protocol: as §1

TMP-I = test: Gene expression (mRNA, RT-PCR) in normal human chondrocytes: TMP-I (anti-catabolic); format: cell-based; conditions: 50 μmol/L; 4 hrs; % of unstimulated cells (100%)
Description: as §1, with “Catabolic events are controlled by the expression of genes, e.g. those genes that encode matrix metalloproteinases (MMPs) that eventually break down collagen or proteoglycans (ADAMTS-4, -5). Of the MMPs, MMP-1 and MMP-3 have a major role in breaking down the ECM in cartilage degradation. Some genes including TIMPS-1 (tissue-inhibitor of MMPs) have anti-catabolic effects and thus contribute to prevention of tissue erosion. The effect” for “The effect”

MMP-9 = test: Gene expression (mRNA, RT-PCR) in normal human chondrocytes: MMP-9 (catabolic); format: cell-based; conditions: 50 μmol/L; stim. 4 hrs; % of IL1β-treated cells (100%)
Description: as §1, with “Catabolic events are controlled by the expression of genes, e.g. those genes that encode matrix metalloproteinases (MMPs) that eventually break down collagen or proteoglycans (ADAMTS-4, -5). Of the MMPs, MMP-1 and MMP-3 have a major role in breaking down the ECM in cartilage degradation. Some genes including TIMPS-1 (tissue-inhibitor of MMPs) have anti-catabolic effects and thus contribute to prevention of tissue erosion. The effect” for “The effect”

ADAMTS-4 = test: Gene expression (mRNA, RT-PCR) in normal human chondrocytes: ADAMTS-4 (catabolic); format: cell-based; conditions: 50 μmol/L; unstim. 4 d; % of control (100%)
Description: Catabolic events are controlled by the expression of genes, e.g. those genes that encode matrix metalloproteinases (MMPs) that eventually break down collagen or proteoglycans (ADAMTS-4, -5). Of the MMPs, MMP-1 and MMP-3 have a major role in breaking down the ECM in cartilage degradation. Some genes including TIMPS-1 (tissue-inhibitor of MMPs) have anti-catabolic effects and thus contribute to prevention of tissue erosion. The effect of a MA/HO (1:3 w/w) mixture in combination with glucosamine was tested on the expression of human aggrecan, collagen I, collagen II, or chondrocyte transcription factors (SOX-6, -9) in vitro in normal human chondrocytes (derived from knee) (CC-2550; Cambrex, respectively). A control experiment without the compounds was done concomitantly to compare the expression of these genes (percentage expression of gene in controls was set to 100%). […] The level of mRNA was determined by RT-PCR (Richard et al. Mol. Nutr. Food Res. 49, 431-442, 2005) and expressed relative to the level observed in cells cultured without the substances. […] […] Yet, when combined the observed increase in gene expression exceeded the expected one reflecting synergism.

SMILES: N[C@H]1C(O)O[C@H](CO)[C@@H](O)[C@@H]1O.O=S(=O)(O)O (some centres unmarked) [Glucosamine sulfate, glucosamine sulfate]
- anti-inflammatory activity (in words) ([1]; LPS-stimulated, nitric oxide): marginal anti-inflammatory
- IC50 ([1]; Mus musculus, LPS 1 μg/ml, 24 hours): > 100 µM
- Aggrecan gene expression level (human aggrecan): 81%
- Collagen 1 gene expression level (collagen I): 121%
- Collagen II gene expression level (collagen II): 154%
- TMP-I gene expression level (TMP-I): 110%
- MMP-9 gene expression level (MMP-9): 114%
- ADAMTS-4 gene expression level (ADAMTS-4): 101%
